# Results from patent US10463649B2, “Inhibitors of Mc1-1 as drugs to overcome resistance to BRAF inhibitors and MEK inhibitors” (Texas Tech University System, priority 2015, dated 2019).
# Assays:
# Assay type in all cases: cell-based
# A375 cells = assay: Development of resistance to vemurafenib in A375 cells, cytotoxicity evaluated intermittently by SRB assay; details: for Fold Resistance: A375; for IC50: Homo sapiens
# Procedure: (§1) Generation of BRAF-inhibitor resistant cell lines. Vemurafenib resistant clones of A375 and SK-MEL-28 were generated by continuous exposure of cells to escalating concentrations of vemurafenib over a period of one year. The cells were treated with vemurafenib for 72 hours after which fresh media was added to the cells. In all, cells were exposed weekly to two treatments of vemurafenib for 72 hours each with a 24 hour recovery period between the treatments. […] Similarly, dabrafenib resistant cells were cultured by incubating the cells with increasing concentrations of the drug for a period of 3 months as described above. The fold resistant was intermittently evaluated by cytotoxicity analysis. Vemurafenib resistant cell lines were referred to as SK-MEL-28-R or A375-R and dabrafenib resistant cell lines were referred to as A375-DR, SK-MEL-28-DR or WM-239-DR. […] Here, A375 cells were injected subcutaneously in nude mice. When palpable tumors were formed, the mice were orally treated with 30 mg/kg vemurafenib twice a day. After a month, the tumors the resisted vemurafenib treatments were extracted and cultured in vitro.
# (§2) Cells were exposed to two treatments of vemurafenib in a week for 72 hours each. Cytotoxicity of these cells was evaluated intermittently by sulforhodamine B assay. […] Cells were exposed to two treatments of vemurafenib in a week for 72 hours each. Cytotoxicity of these cells was evaluated intermittently by sulforhodamine B assay.
# [1] = tested on: A375 cells transfected with Mcl-1 plasmid; assay: SRB cell survival in A375 cells transfected with Mcl-1 plasmid; details: Mcl-1 overexpressing A375 (transient), 72 hours
# Procedure: FIG. 3A (A375 cells) and FIG. 3B SK-MEL-28 cells untransfected or transfected with Mcl-1 plasmid were treated with 0.2 μM and 0.4 μM vemurafenib for 72 hours. The cell survival was evaluated by sulforhodamine B assay. […] FIG. 3E A375 and A375-Mcl-1+/+ or FIG. 3F, SK-MEL-28 and SK-MEL-28-Mcl-1+/+ were treated with 0.2 μM and 0.4 μM vemurafenib for 72 hours. The cell survival was evaluated by sulforhodamine B assay.
# FIG. 8A (A375) and FIG. 8B (SK-MEL-28) untransfected or transfected with Mcl-1 plasmid were treated with 10 nM dabrafenib or 2 nM trametinib for 72 hours. FIG. 8C A375 and FIG. 8D SK-MEL 28 cells untransfected or transfected with Mcl-1 plasmid were treated with 400 nM vemurafenib or 2 nM trametinib for 72 hours. The cell survival was evaluated by sulforhodamine B assay.
# Mcl-1 overexpression. A375 or SK-MEL-28 cells were transiently or stably transfected with plasmid overexpressing Mcl-1 by nucleofection kit (Lonza, Basel, Switzerland) according to manufacturer's protocol and previously described by the inventors (26). Briefly, 2×10^6 cells were suspended in a reaction mixture from the kit specific to the cell line (Kit V for A375 and Kit R for SK-MEL-28 cells). The cells were transferred to the cuvettes and nucleofected using the nucleofector instrument (Amaxa, Cologne, Germany). […]
# SK-MEL-28 cells = assay: Development of resistance to vemurafenib in SK-MEL-28 cells, cytotoxicity evaluated intermittently by SRB assay; details: for IC50: Homo sapiens; for Fold Resistance: SK-MEL-28
# Procedure: as §1, §2
# A375-R cells = assay: SRB cell survival in vemurafenib resistant A375-R cells
# Procedure: (§3) Each study was performed three times independently. Mcl-1 inhibitor overcomes vemurafenib resistance in melanoma cells. […] The cell survival was evaluated by sulforhodamine B assay.
# (§4) FIGS. 4A to 4D show the silencing Mcl-1 reverses vemurafenib resistance. […] The cell survival was evaluated by sulforhodamine B assay.
# as §1
# (§5) Mcl-1 silencing. Silencing of Mcl-1 was achieved according to the protocol described by the inventors (27). Briefly, 0.3×10^6 cells were plated in OPTI-MEM without antibiotics and transfected with either Mcl-1 siRNA or scrambled siRNA. Complexes were prepared by incubating […] siRNA with 8 μl siPORT transfection reagent in 200 μl OPTI-MEM media without serum or antibiotic for 20 minutes. These complexes were then added to the cells. Six hours after transfection, complexes were replaced with fresh medium.
# SK-MEL-28-R cells = assay: SRB cell survival in vemurafenib resistant SK-MEL-28-R cells
# Procedure: as §3, §4, §1, §5
structure (smiles),measurement,setting,value
CCCS(=O)(=O)Nc1ccc(F)c(C(=O)c2c[nH]c3ncc(-c4ccc(Cl)cc4)cc23)c1F [vemurafenib],Fold Resistance,"A375 cells; Month 0, vemurafenib 0 μM",1
same,Fold Resistance,"A375 cells; Month 1, vemurafenib 0.2 μM",2.15
same,Fold Resistance,"A375 cells; Month 2, vemurafenib 0.2 μM",2.85
same,Fold Resistance,"A375 cells; Month 3, vemurafenib 0.4 μM",4.1
same,Fold Resistance,"A375 cells; Month 4, vemurafenib 0.4 μM",4.5
same,Fold Resistance,"A375 cells; Month 5, vemurafenib 0.8 μM",4.85
same,Fold Resistance,"A375 cells; Month 6, vemurafenib 0.8 μM",5.6
same,Fold Resistance,"A375 cells; Month 7, vemurafenib 1 μM",8.5
same,Fold Resistance,"A375 cells; Month 8, vemurafenib 1 μM",9.7
same,Fold Resistance,"A375 cells; Month 9, vemurafenib 4 μM",12.5
same,Fold Resistance,"A375 cells; Month 10, vemurafenib 8 μM",18.4
same,Fold Resistance,"A375 cells; Month 11, vemurafenib 8 μM",26
same,Fold Resistance,"A375 cells; Month 12, vemurafenib 10 μM",30
same,IC50,"A375 cells; A-375, Month 0, vemurafenib 0 μM",0.1 µM
same,IC50,"A375 cells; A-375, Month 1, vemurafenib 0.2 μM",0.215 µM
same,IC50,"A375 cells; A-375, Month 2, vemurafenib 0.2 μM",0.285 µM
same,IC50,"A375 cells; A-375, Month 3, vemurafenib 0.4 μM",0.41 µM
same,IC50,"A375 cells; A-375, Month 4, vemurafenib 0.4 μM",0.45 µM
same,IC50,"A375 cells; A-375, Month 5, vemurafenib 0.8 μM",0.485 µM
same,IC50,"A375 cells; A-375, Month 6, vemurafenib 0.8 μM",0.56 µM
same,IC50,"A375 cells; A-375, Month 7, vemurafenib 1 μM",0.85 µM
same,IC50,"A375 cells; A-375, Month 8, vemurafenib 1 μM",0.97 µM
same,IC50,"A375 cells; A-375, Month 9, vemurafenib 4 μM",1.25 µM
same,IC50,"A375 cells; A-375, Month 10, vemurafenib 8 μM",1.84 µM
same,IC50,"A375 cells; A-375, Month 11, vemurafenib 8 μM",2.6 µM
same,IC50,"A375 cells; A-375, Month 12, vemurafenib 10 μM",3 µM
same,Reduction of cell survival,[1]; 0.2 μM vemurafenib,18%
same,Reduction of cell survival,[1]; 0.4 μM vemurafenib,24%
same,IC50,"SK-MEL-28 cells; SK-MEL-28, Month 0, vemurafenib 0 μM",0.075 µM
same,IC50,"SK-MEL-28 cells; SK-MEL-28, Month 1, vemurafenib 0.2 μM",0.158 µM
same,IC50,"SK-MEL-28 cells; SK-MEL-28, Month 2, vemurafenib 0.2 μM",0.162 µM
same,IC50,"SK-MEL-28 cells; SK-MEL-28, Month 3, vemurafenib 0.4 μM",0.264 µM
same,IC50,"SK-MEL-28 cells; SK-MEL-28, Month 4, vemurafenib 0.4 μM",0.315 µM
same,IC50,"SK-MEL-28 cells; SK-MEL-28, Month 5, vemurafenib 0.8 μM",0.61 µM
same,IC50,"SK-MEL-28 cells; SK-MEL-28, Month 6, vemurafenib 0.8 μM",0.673 µM
same,IC50,"SK-MEL-28 cells; SK-MEL-28, Month 7, vemurafenib 1 μM",0.735 µM
same,IC50,"SK-MEL-28 cells; SK-MEL-28, Month 8, vemurafenib 1 μM",0.754 µM
same,IC50,"SK-MEL-28 cells; SK-MEL-28, Month 9, vemurafenib 4 μM",0.824 µM
same,IC50,"SK-MEL-28 cells; SK-MEL-28, Month 10, vemurafenib 8 μM",1.24 µM
same,IC50,"SK-MEL-28 cells; SK-MEL-28, Month 11, vemurafenib 8 μM",1.86 µM
same,IC50,"SK-MEL-28 cells; SK-MEL-28, Month 12, vemurafenib 10 μM",3.3 µM
same,Fold Resistance,"SK-MEL-28 cells; Month 0, vemurafenib 0 μM",1
same,Fold Resistance,"SK-MEL-28 cells; Month 1, vemurafenib 0.2 μM",2.1
same,Fold Resistance,"SK-MEL-28 cells; Month 2, vemurafenib 0.2 μM",2.24
same,Fold Resistance,"SK-MEL-28 cells; Month 3, vemurafenib 0.4 μM",3.52
same,Fold Resistance,"SK-MEL-28 cells; Month 4, vemurafenib 0.4 μM",4.2
same,Fold Resistance,"SK-MEL-28 cells; Month 5, vemurafenib 0.8 μM",8.13
same,Fold Resistance,"SK-MEL-28 cells; Month 6, vemurafenib 0.8 μM",8.97
same,Fold Resistance,"SK-MEL-28 cells; Month 7, vemurafenib 1 μM",9.8
same,Fold Resistance,"SK-MEL-28 cells; Month 8, vemurafenib 1 μM",10.05
same,Fold Resistance,"SK-MEL-28 cells; Month 9, vemurafenib 4 μM",10.99
same,Fold Resistance,"SK-MEL-28 cells; Month 10, vemurafenib 8 μM",16.48
same,Fold Resistance,"SK-MEL-28 cells; Month 11, vemurafenib 8 μM",24.85
same,Fold Resistance,"SK-MEL-28 cells; Month 12, vemurafenib 10 μM",44
same,Decrease of cell survival,"A375-R cells; A375-R cells, Mcl-1 silenced by siRNA, then 0.4 μM vemurafenib 72 hours",65%
same,IC50,"A375-R cells; A375R cells, 72 hours",3000 nM
same,Decrease of cell survival,"SK-MEL-28-R cells; SK-MEL-28-R cells, Mcl-1 silenced by siRNA, then 0.4 μM vemurafenib 72 hours",55%
same,IC50,"SK-MEL-28-R cells; SK-MEL-28R cells, 72 hours",3300 nM
